Data reported in the NIST ThermoML archive (doi:10.1016/j.fluid.2016.08.036).

Assay: mn = molality of the nth substance listed, in mol/kg
Settings: 87 kPa, Liquid, Vibrating tube method

CCn1cc[n+](C)c1.O=S(=O)([O-])O [1-ethyl-3-methylimidazolium hydrogen sulfate] + O
mass density [kg/m3]
Settings | m1 = 0.0363 | m1 = 0.0687 | m1 = 0.1026 | m1 = 0.1384 | m1 = 0.1716 | m1 = 0.2049 | m1 = 0.2391 | m1 = 0.2718 | m1 = 0.3034 | m1 = 0.3375
293.15 K | 1000.86 | 1003.08 | 1005.3 | 1007.57 | 1009.63 | 1011.67 | 1013.72 | 1015.68 | 1017.53 | 1019.54
298.15 K | 999.65 | 1001.82 | 1003.99 | 1006.22 | 1008.23 | 1010.23 | 1012.24 | 1014.17 | 1016 | 1017.98
303.15 K | 998.2 | 1000.33 | 1002.46 | 1004.64 | 1006.63 | 1008.6 | 1010.58 | 1012.47 | 1014.26 | 1016.21
308.15 K | 996.54 | 998.63 | 1000.73 | 1002.87 | 1004.82 | 1006.76 | 1008.7 | 1010.58 | 1012.34 | 1014.25
313.15 K | 994.68 | 996.73 | 998.8 | 1000.91 | 1002.83 | 1004.74 | 1006.66 | 1008.5 | 1010.24 | 1012.13
